Test results: paper PMC5727842, “Antioxidant and Antidiabetic Effects of Flavonoids: A Structure-Activity Relationship Based Study” (BioMed Research International, 2017)

How the values were obtained:
[1] = ABTS+ radical scavenging assay; settings: 734 nm, mean ± SEM (n = 3)
Method: An improved ABTS^+ radical decolorization assay was carried out involving direct production of the blue/green ABTS^+ chromophore through the reaction between ABTS and potassium persulfate. Addition of antioxidant to the preformed radical cation reduces it to ABTS to an extent on a time scale depending on the antioxidant activity, the concentration of the antioxidant, and the duration of the reaction. 1 ml ABTS was dissolved in water to make 7 mM concentration of the resultant solution. […] The resultant reaction mixture was allowed to stand in the dark at room temperature for 12–16 h before being used. The ABTS^+ radical solution was diluted with MeOH to an absorbance of 0.7 (±0.02) at 734 nm. Then, 100 μl of sample at various concentrations (1000–0.4889 μg/mL) was mixed with 100 μL of diluted ABTS^+ radical. Each concentration was analyzed in triplicate and the percentage decrease of absorbance at 734 nm with a microplate reader (Tecan NanoQuant Infinite M200, Switzerland) was calculated for each point and the antioxidant capacity of the tested compounds was expressed as percent inhibition (%). The radical scavenging activity of the compounds was measured according to the following equation [29]:(2) % inhibition=Acontrol−Asample/Acontrol×100. IC50 values were calculated by linear regression of plots, and the average percent of scavenging capacity was taken from three replicates. Trolox was used as a standard in comparison for the determination of the antioxidant activity of the flavonoids.

[2] = target: T1, xanthine oxidase from buttermilk (Bos taurus, UniProt P80457); assay: Xanthine oxidase inhibitory assay (XOI); assay type: biochemical; settings: for xanthine oxidase inhibitory effect (in words): discussion
T1 construct: 0.3 U/mL enzymes (xanthine oxidase from buttermilk); purchased Sigma-Aldrich (Singapore); host or cells: buttermilk (natural source)
Method: XO catalyzes the oxidation of hypoxanthine to xanthine and subsequently to uric acid. The inhibition of XO reduces both vascular oxidative stress and circulating levels of uric acid. This assay is based on the fact that the superoxide anions are generated by the xanthine. The xanthine oxidase inhibitory activity was measured spectrophotometrically (Tecan NanoQuant Infinite M200, Switzerland) at 295 nm under aerobic condition with slight modification. The reaction mixture contained 50 mM phosphate buffer (pH 7.5), 0.15 mM xanthine (substrate), and 0.3 U/mL enzymes (xanthine oxidase from buttermilk). Samples were prepared by dissolving 1 mg in 5% DMSO in MeOH which gives sample concentration of 144.0 μg/mL in assay. […] The absorption increment at 295 nm indicates the formation of […] of uric acid/min at 25°C. […] All determination was done in triplicate and half maximal concentration (IC50) values were calculated from the percentage of inhibition. XO inhibition activity was expressed as the percentage inhibition of XO as follows:(3) % of inhibition=AbsA−B−C−D/AbsA−B×100, where A is the negative control with B as the blank of A which is without the enzyme and the sample while C is the activity of the sample with enzyme with D as the blank of the sample without enzyme.

[3] = DPPH radical scavenging assay; settings: 30 min, 517 nm, mean ± SEM (n = 3)
Method: Each sample's stock solution was diluted to final concentrations of 1000–0.4889 μg/mL in MeOH. A total of 1 mL of a 0.3 mM DPPH methanolic solution was added to 2.5 mL of sample solution of different concentrations and allowed to react at room temperature. After 30 min, the absorbance (Abs) values were measured at 517 nm with a microplate reader (Tecan NanoQuant Infinite M200, Switzerland) and converted into the percentage antioxidant activity using the following equation described previously: (1) % antioxidant activity=100−Abssample−Abssample blank/Abscontrol−Abscontrol blank×100. MeOH + compound solution was used as a blank, while DPPH solution plus MeOH was used as a negative control. The positive controls were DPPH solution plus 1 mM ascorbic acid. The IC50 values were calculated by linear regression of plots. The average percent of scavenging capacity was taken from three replicates.

DPP-4 = target: T2, DPP-4 (Homo sapiens, UniProt P27487); assay: Dipeptidyl peptidase IV (DPP-4) inhibitory assay; assay type: biochemical; settings: Table 3; mean ± SEM (n = 3); NA: not active
T2 construct: purchased Cayman (Michigan, USA)
Method: Dipeptidyl peptidase (IV) inhibitors work by inhibiting the action of this enzyme, thereby prolonging the activity of incretins that play an important role in insulin secretion and blood glucose control regulation. DPP-4 inhibitory assay was performed as per the standard method (Cayman, USA). Firstly, 1 mg of sample was dissolved in 10% of DMSO and MeOH as the stock solution. For initial activity (100%), 10 μL of MeOH, 30 μL of diluted assay buffer, and 10 μL of diluted DPP-4 (Cayman, USA) were added to 96-well microplate. […] For background well, 10 μL of MeOH and 40 μL of diluted assay buffer were added. Then, 10 μL of prepared sample and 30 μL of diluted assay buffer were added with 10 μL of diluted DPP-4. After that, 50 μL of substrate solution was added to all wells to initiate the reaction and further incubated in the dark at 37°C for 30 min. Finally, plate was read at 360 nm of excitation wavelength and 465 nm of emission wavelength using fluorescence microplate reader (Perkin Elmer, Germany). All determinations were done in triplicate and half maximal concentration (IC50) values were calculated from the percentage of inhibition based on the linear regression analysis. The equation given below was applied to calculate the inhibitory activity (%):(5) Inhibitory activity%=Initial Activity−Sample/Initial Activity×100%.
For DPP-4 inhibitory assay, the reaction is based on the cleavage of the peptide bond by DPP releasing the free Gly-Pro-aminomethylcoumarin group, a fluorogenic substrate resulting in fluorescence excitation and emission.

[4] = Ferric reducing antioxidant power (FRAP); settings: for FRAP (AAE μg): ascorbic acid equivalent, mean ± SEM (n = 3), Table 2
Method: This assay was based on the reduction of the ferric tripyridyltriazine (Fe III-TPTZ) complex to the ferrous ion (Fe II) at a low pH forming an intense blue color. In the FRAP assay, compounds that are rich in antioxidant effect exert their action by breaking the free radical chain by donating a hydrogen atom. Briefly, ferric reducing antioxidant power (FRAP) reagent (2.5 mL of a 10 mM TPTZ solution in 40 mM HCl, 2.5 mL of 20 mM FeCl3, and 25 mL of 0.1 M acetate buffer pH 3.6) was prepared and incubated for 10 min at 37°C. Then 20 μL of each compound and ascorbic acid (standard) and 40 μL of FRAP reagent were added to 140 μL of distilled water in a 96-well plate producing a blue-colored solution. The solutions were kept at room temperature for 20 min in the dark and then measured at 593 nm with a microplate reader (Tecan, Switzerland) using a reagent blank composed of 40 μL of FRAP reagents in 200 μL of distilled water. A calibration curve was prepared with a serial dilution of ascorbic acid (standard). The total antioxidant capacity was calculated by interpolating the measured absorbance of the calibration curve and expressed as ascorbic acid equivalents. The results were corrected for dilution and expressed as AAE μg of ascorbic acid/g.

[5] = Rapid screening of radical scavenging activity by dot blot assay (DPPH staining); settings: silica sheet stained with DPPH in MeOH, dilutions from 1000 μg/mL
Method: An aliquot (20 μL) of each dilution of each group was carefully loaded on a […] TLC plate and allowed to dry for 10 min. Drops of each sample were loaded in the order of decreased concentration along the 16 columns. The staining of the silica plate was based on the procedure of Soler-Rivas et al.. […] The intensity of the yellow color depends upon the amount and nature of radical scavenger present in the flavonoids.

[6] = target: α-glucosidase from Saccharomyces cerevisiae; assay: α-Glucosidase inhibitory assay; assay type: biochemical; settings: Table 3; mean ± SEM (n = 3); NA: not active
Method: α-Glucosidase inhibitory activity of the flavonoids was carried out according to the standard method with minor modification. […] A solution of 30 mM phosphate buffer (pH 6.5) was used to prepare stock solution of the sample to form a final concentration of 160 μg/mL. Then, 10 μL/well of sample was mixed with 15 μL/well of α-glucosidase from Saccharomyces cerevisiae (Megazyme, Ireland). 50 mM buffer (pH 6.5) was used to prepare the enzyme solution. Then, 115 μL/well of 30 mM buffer (pH 6.5) was added and incubated for 5 min at room temperature. Then, 75 μL/well of PNP-glucoside was added to initiate reaction and incubated at room temperature for 15 min. Finally, about 50 μL glycine at pH 10 was added to stop the reaction. The final volume of 250 μL of compound, positive control, enzyme, 30 mM buffer, and substrate was located in 96-well microplate. The absorbance (Abs) was measured using microplate reader (Tecan NanoQuant Infinite M200, Switzerland) at 405 nm to represent the amount of p-nitrophenol released from PNP-glucoside. […] The equation given below was used to calculate the inhibitory activity (%):(4) Inhibitory activity%=Abs control−Abs sample/Abs control×100%.
Tested on yeast α-glycosidase, the reaction is initiated by reacting the inhibitor (sample) with the α-glycosidase enzyme that competes with […] for the binding site, thus releasing ρ-nitrophenol which was measured in the assay.

T2 sequence (P27487 whole entry): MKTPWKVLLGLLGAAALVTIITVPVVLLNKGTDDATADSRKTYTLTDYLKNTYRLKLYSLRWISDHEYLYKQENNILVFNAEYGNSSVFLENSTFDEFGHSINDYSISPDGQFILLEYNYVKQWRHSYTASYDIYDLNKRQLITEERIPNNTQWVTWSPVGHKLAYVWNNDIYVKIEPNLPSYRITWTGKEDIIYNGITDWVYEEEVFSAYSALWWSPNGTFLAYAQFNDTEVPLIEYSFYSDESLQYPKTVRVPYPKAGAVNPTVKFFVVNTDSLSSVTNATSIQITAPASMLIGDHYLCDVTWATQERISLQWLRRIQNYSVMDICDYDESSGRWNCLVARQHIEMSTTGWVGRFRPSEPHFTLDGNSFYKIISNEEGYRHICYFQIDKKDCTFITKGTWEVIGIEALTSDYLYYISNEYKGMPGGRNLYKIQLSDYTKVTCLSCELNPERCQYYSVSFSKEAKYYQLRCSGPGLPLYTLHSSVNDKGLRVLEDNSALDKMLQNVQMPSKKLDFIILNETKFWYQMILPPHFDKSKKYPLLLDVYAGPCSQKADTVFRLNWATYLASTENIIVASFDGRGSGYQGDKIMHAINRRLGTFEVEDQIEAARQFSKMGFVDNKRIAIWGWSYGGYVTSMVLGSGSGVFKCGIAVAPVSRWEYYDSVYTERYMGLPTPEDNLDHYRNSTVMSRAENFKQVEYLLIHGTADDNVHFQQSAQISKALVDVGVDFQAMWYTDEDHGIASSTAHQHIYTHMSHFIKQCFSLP
T1 sequence (P80457 whole entry): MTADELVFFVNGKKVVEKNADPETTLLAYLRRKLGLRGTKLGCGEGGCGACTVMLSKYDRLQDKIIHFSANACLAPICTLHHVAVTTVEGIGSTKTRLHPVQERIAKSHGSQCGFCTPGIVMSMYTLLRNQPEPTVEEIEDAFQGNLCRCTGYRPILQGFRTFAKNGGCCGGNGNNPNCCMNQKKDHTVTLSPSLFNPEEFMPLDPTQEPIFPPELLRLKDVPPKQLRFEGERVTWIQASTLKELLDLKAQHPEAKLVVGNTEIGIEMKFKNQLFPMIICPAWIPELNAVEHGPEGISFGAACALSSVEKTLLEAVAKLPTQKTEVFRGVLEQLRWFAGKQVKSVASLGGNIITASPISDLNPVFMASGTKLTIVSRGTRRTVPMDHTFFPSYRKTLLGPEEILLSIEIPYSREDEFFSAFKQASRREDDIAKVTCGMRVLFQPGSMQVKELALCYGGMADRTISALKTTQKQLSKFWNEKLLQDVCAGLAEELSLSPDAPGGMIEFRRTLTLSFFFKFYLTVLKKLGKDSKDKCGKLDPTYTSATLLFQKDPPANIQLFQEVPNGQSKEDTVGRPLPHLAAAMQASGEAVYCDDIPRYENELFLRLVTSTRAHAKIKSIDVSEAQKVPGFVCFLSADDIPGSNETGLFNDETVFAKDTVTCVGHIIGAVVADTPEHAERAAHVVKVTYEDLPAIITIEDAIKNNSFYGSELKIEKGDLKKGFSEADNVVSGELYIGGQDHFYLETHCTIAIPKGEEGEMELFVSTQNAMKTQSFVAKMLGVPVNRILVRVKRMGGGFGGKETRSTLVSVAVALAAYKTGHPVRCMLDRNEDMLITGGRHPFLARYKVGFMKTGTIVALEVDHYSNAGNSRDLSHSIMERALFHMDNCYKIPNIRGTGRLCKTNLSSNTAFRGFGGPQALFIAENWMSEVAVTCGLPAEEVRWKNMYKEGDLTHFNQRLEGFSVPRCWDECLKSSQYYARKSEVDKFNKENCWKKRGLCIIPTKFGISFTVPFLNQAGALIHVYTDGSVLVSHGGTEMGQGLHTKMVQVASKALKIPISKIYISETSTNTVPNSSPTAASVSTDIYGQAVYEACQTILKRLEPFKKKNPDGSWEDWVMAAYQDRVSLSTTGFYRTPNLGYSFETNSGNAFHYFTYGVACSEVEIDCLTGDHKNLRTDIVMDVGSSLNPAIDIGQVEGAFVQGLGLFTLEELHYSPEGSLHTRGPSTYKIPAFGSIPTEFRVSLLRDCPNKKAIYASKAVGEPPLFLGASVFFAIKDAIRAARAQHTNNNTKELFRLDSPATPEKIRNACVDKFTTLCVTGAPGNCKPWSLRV

Row | SMILES | IC50 ABTS+ [1] | xanthine oxidase inhibitory effect (in words) [2] | IC50 DPPH [3] | IC50 (DPP-4) [µM] | IC50 ([2]; xanthine oxidase inhibition, 295 nm, mean ± SEM (n = 3), NA: not active) [µM] | FRAP antioxidant capacity [4] | FRAP (AAE μg) [4] | radical scavenging activity by dot blot (intensity of yellow spots) [5] | IC50 α-Glucosidase [6]
1 | O=c1c(O)c(-c2ccc(O)cc2)oc2cc(O)cc(O)c12 [Kaempferol, 4′,3,5,7-Tetrahydroxyflavone] | 1.36 ± 0.22^FG µg/ml | significant xanthine oxidase inhibitory effect | 10.89 ± 0.86^EF µg/ml | 160 |  | 265.65 ± 5.46 AAE μg of ascorbic acid/g | 265.65 ± 5.46^A AAE μg | strong radical scavenging activity | 
2 | O=c1c(O)c(-c2ccc(O)c(O)c2)oc2cc(O)cc(O)c12 [Quercetin, 3,3′,4′,5,7-Pentahydroxyflavone] | 0.83 ± 0.01^FG µg/ml | significant xanthine oxidase inhibitory effect | 7.76 ± 0.99^FG µg/ml | 72 |  | 148.12 ± 4.40 AAE μg of ascorbic acid/g | 138.93 ± 6.22^C AAE μg | strong radical scavenging activity | 
3 | COc1c(OC(C)=O)cc(OC(C)=O)c2c(=O)cc(-c3ccccc3)oc12 [Acetate (wogonin), 5,7-Diacetoxy-8-methoxyflavone] | >200^A µg/ml |  | >200^A µg/ml |  |  | 5.06 ± 3.24 AAE μg of ascorbic acid/g | 5.06 ± 3.24^G AAE μg | did not show any spot | >100^A µg/mg
4 | Oc1cc(O)c2c(c1)O[C@H](c1ccc(O)c(O)c1)[C@@H](O)C2 [(+)-Catechin] | 0.62 ± 0.05^G µg/ml | inactive | 14.34 ± 1.55^EF µg/ml |  |  | 152.07 ± 1.95 AAE μg of ascorbic acid/g | 148.12 ± 4.40^C AAE μg | strong radical scavenging activity | 
5 | CC(=O)Oc1cc(OC(C)=O)c2c(=O)cc(-c3ccccc3)oc2c1OC(C)=O [Acetate (norwogonin), 5,7,8-Triacetoxyflavone] | 78.99 ± 66.5^C µg/ml |  | >100^B µg/ml | > 252 |  | 39.63 ± 1.01 AAE μg of ascorbic acid/g | 39.63 ± 1.01^E AAE μg | did not show any spot | 

The next lines start with results.

Row | IC50 ABTS+ [1] | xanthine oxidase inhibitory effect (in words) [2] | IC50 DPPH [3] | IC50 (DPP-4) [µM] | IC50 ([2]; xanthine oxidase inhibition, 295 nm, mean ± SEM (n = 3), NA: not active) [µM] | SMILES | FRAP antioxidant capacity [4] | FRAP (AAE μg) [4] | radical scavenging activity by dot blot (intensity of yellow spots) [5] | IC50 α-Glucosidase [6]
6 |  |  | 4.75 ± 0.91^GHa µg/ml |  |  | O=C1O[C@H]([C@@H](O)CO)C(O)=C1O [Ascorbic acid, ascorbic acid, reference compound] | 114.58 AAE μg of ascorbic acid/g | 114.58 ± 0.27^Da AAE μg |  | 
7 | 1.76 ± 0.15^^FG µg/ml |  |  |  |  | Cc1c(C)c2c(c(C)c1O)CCC(C)(C(=O)O)O2 (stereo not shown) [Trolox, trolox, reference compound] |  |  |  | 
8 | 1.73 ± 0.06^FG µg/ml | low xanthine oxidase inhibitory activity | 5.23 ± 0.53^GHa µg/ml | 77.7 | > 349 | O=c1cc(-c2ccc(O)cc2)oc2c(O)c(O)cc(O)c12 [Isoscutellarein, 4′,5,7,8-Tetrahydroxyflavone] |  | 262.91 ± 4.99^A AAE μg | strong radical scavenging activity | 
9 | 0.70 ± 0.08^G µg/ml | inactive | 9.92 ± 0.33^F µg/ml |  |  | Oc1cc(O)c2c(c1)O[C@H](c1ccc(O)c(O)c1)[C@H](O)C2 [(−)-Epicatechin] | 152.14 ± 7.30 AAE μg of ascorbic acid/g | 152.07 ± 1.95^C AAE μg | strong radical scavenging activity | 
10 | >200^A µg/ml |  | >200^A µg/ml | > 320 |  | COc1cc(OC)c2c(=O)cc(-c3ccccc3)oc2c1OC [Methyl ether (wogonin), 5,7,8-Trimethoxyflavone] | 1.68 ± 0.18 AAE μg of ascorbic acid/g | 1.68 ± 0.18^G AAE μg | did not show any spot | 
